Measurements reported in patent US20060211755A1, “3-oxo-1, 3-dihydro-indazole-2-carboxylic acid amide derivatives as phospholipase inhibitors” (Eli Lilly and Company Patent Division, priority 2003, published 2006).

tested on: not given; assay: not given; conditions: not given

Row | Compound | melting point [°C]
1 | CCCCCNC(=O)n1[nH]c2ccccc2c1=O [Example 2, 3-Oxo-1,3-dihydro-indazole-2-carboxylic acid pentylamide] | 119 to 120
2 | Cc1cccc(CNC(=O)n2[nH]c3ccccc3c2=O)c1 [Example 17, 3-Oxo-1,3-dihydro-indazole-2-carboxylic acid 3-methyl-benzylamide] | 179 to 180
3 | CCc1cccc(CC)c1CNC(=O)n1[nH]c2cccc(C(=O)O)c2c1=O [Example 69, 2-(2,6-Diethyl-benzylcarbamoyl)-3-oxo-2,3-dihydro-1H-indazole-4-carboxylic acid] | > 250
4 | CCCNC(=O)n1[nH]c2ccccc2c1=O [Example 1, 3-Oxo-1,3-dihydro-indazole-2-carboxylic acid propylamide] | 153 to 155
5 | O=C(O)c1cccc2[nH]n(C(=O)NCCCCc3ccccc3)c(=O)c12 [Example 75, 3-Oxo-2-(4-phenyl-butylcarbamoyl)-2,3-dihydro-1H-indazole-4-carboxylic acid] | > 250
6 | CCc1cccc(C)c1CNC(=O)n1[nH]c2c(C(=O)O)cccc2c1=O [Example 64, 2-(2-Ethyl-6-methyl-benzylcarbamoyl)-3-oxo-2,3-dihydro-1H-indazole-7-carboxylic acid] | > 250
7 | O=C(O)c1cccc2[nH]n(C(=O)NCCCCC3CCCCC3)c(=O)c12 [Example 76, 2-(4-Cyclohexyl-butylcarbamoyl)-3-oxo-2,3-dihydro-1H-indazole-4-carboxylic acid] | 196 to 198
8 | CC(C)c1cccc(C(C)C)c1CNC(=O)n1[nH]c2c(C(=O)O)cccc2c1=O [Example 72, 2-(2,6-Diisopropyl-benzylcarbamoyl)-3-oxo-2,3-dihydro-1H-indazole-7-carboxylic acid] | > 250
9 | Cc1cccc(C(C)(C)C)c1CNC(=O)n1c(=O)c2cccc(C(=O)O)c2n1C [Example 97, 2-(2-tert-Butyl-6-methyl-benzylcarbamoyl)-1-methyl-3-oxo-2,3-dihydro-1H-indazole-7-carboxylic acid] | > 250
10 | Cc1cccc(C)c1CNC(=O)n1[nH]c2cccc(C(=O)O)c2c1=O [Example 59, 2-(2,6-Dimethyl-benzylcarbamoyl)-3-oxo-2,3-dihydro-1H-indazole-4-carboxylic acid] | > 250
11 | Cc1ccccc1CNC(=O)n1[nH]c2cccc(C(=O)O)c2c1=O [Example 52, 2-(2-Methyl-benzylcarbamoyl)-3-oxo-2,3-dihydro-1H-indazole-4-carboxylic acid] | > 250
12 | CCCCc1ccc(CNC(=O)n2[nH]c3cccc(C(=O)O)c3c2=O)c(C)c1 [Example 68, 2-(4-Butyl-2-methyl-benzylcarbamoyl)-3-oxo-2,3-dihydro-1H-indazole-4-carboxylic acid] | 173 to 175
13 | CCc1cccc(C)c1CNC(=O)n1[nH]c2cc(C(=O)O)ccc2c1=O [Example 63, 2-(2-Ethyl-6-methyl-benzylcarbamoyl)-3-oxo-2,3-dihydro-1H-indazole-6-carboxylic acid] | > 250
14 | CCc1cccc(CC)c1CNC(=O)n1c(=O)c2cccc(C(=O)O)c2n1C [Example 98, 2-(2,6-Diethyl-benzylcarbamoyl)-1-methyl-3-oxo-2,3-dihydro-1H-indazole-7-carboxylic acid] | > 250
15 | CCc1cccc(C)c1CNC(=O)n1[nH]c2ccc(C(=O)O)cc2c1=O [Example 62, 2-(2-Ethyl-6-methyl-benzylcarbamoyl)-3-oxo-2,3-dihydro-1H-indazole-5-carboxylic acid] | > 250
16 | CCCCCCNC(=O)n1[nH]c2cccc(C(=O)OC)c2c1=O [Example 99, 2-Hexylcarbamoyl-3-oxo-2,3-dihydro-1H-indazole4-carboxylic acid methyl ester] | 63 to 65
17 | C=CCOC(=O)c1cccc2[nH]n(C(=O)NCCCCCC)c(=O)c12 [Example 100, 2-Hexylcarbamoyl-3-oxo-2,3-dihydro-1H-indazole-4-carboxylic acid allyl ester] | 67 to 69
18 | Cc1ccccc1CNC(=O)n1[nH]c2c(C(=O)O)cccc2c1=O [Example 55, 2-(2-Methyl-benzylcarbamoyl)-3-oxo-2,3-dihydro-1H-indazole-7-carboxylic acid] | > 250

molecular target: T1, Recombinant Hepatic Lipase (Homo sapiens, UniProt P11150); assay: Hepatic Lipase Phospholipase Assay; assay type: biochemical; conditions: ThioPEG substrate, DTNB, 37° C., 10 min preincubation; read-out: Hepatic Lipase Inhibition IC50
T1 sequence (P11150 23-499): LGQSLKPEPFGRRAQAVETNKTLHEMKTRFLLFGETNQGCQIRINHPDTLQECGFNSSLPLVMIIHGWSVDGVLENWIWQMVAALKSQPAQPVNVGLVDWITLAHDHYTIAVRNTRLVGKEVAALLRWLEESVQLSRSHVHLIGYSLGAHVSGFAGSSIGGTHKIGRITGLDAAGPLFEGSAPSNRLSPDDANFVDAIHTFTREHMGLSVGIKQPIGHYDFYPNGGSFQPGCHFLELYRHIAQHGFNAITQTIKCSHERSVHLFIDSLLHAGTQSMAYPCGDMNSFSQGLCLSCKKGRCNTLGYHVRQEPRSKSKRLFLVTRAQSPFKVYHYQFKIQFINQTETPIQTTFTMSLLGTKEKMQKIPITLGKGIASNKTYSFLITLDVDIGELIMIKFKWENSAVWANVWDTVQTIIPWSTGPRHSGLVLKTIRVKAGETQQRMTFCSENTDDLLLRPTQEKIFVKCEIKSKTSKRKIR
Description: Hepatic Lipase Phospholipase Assay
Efficacy was determined by testing various compounds of the invention in a hepatic lipase assay discussed below, and disclosed in U.S. patent application Ser. No. 09/609,871 filed Jul. 3, 2000 incorporated herein by reference in its entirety for U.S. Patent office purposes.
• Substrate Buffer A: 100 mM Hepes, pH 8.3 at 37° C. • Substrate Buffer B: 100 mM Hepes, pH 8.3 at 37° C. with 6.83 mM Triton X100 • ThioPEG: Molecular wt. of 540 • Recombinant Hepatic Lipase • Thiophospholipid: about 0.42 mM thiophospholipid in chloroform • DTNB Solution: about […] DTNB in DMSO (dimethyl sulfoxide) Hepes Buffer A
For Hepes Buffer A, there is 2.4 g Hepes/100 mL water. Therefore 36 grams of Hepes is dissolved in 1500 mL of water. The mix solution's pH is adjusted to pH 8.3 at 37° C. and brought up to 1500 mL with water. 500 mL of Buffer A is retained for the Protein Buffer.
To the remaining 1000 mL of Hepes Buffer A, 4.49 g of Triton X-100 is added and then the combination mixed on a stir plate. It is optimal that stock Buffer A not be too cold or Triton X-100 will take a long time to go into solution
For 0.42 mM substrate stock, use 0.227 mg of thioPEG/mL of Substrate Buffer B. Approximately 20 mg of sn-1 thiol substituted. Phosphatidyl Ethylene Glycol (see Examples for preparation method) is weighed into a vial, such as a scintillation vial. Enough chloroform should be added to make a 2.043 mg/mL solution. Sonicate the solution briefly until well dissolved. Next, pipette 1 mL of chloroform/substrate solution into each scintillation vial. This should give enough substrate for one full 96 well plate. Each vial is dried with nitrogen until solvent removed, swirling each vial simultaneously such that a thin film of substrate will be easily reconstituted in each buffer. Each vial is then frozen.
Daily stock preparation is performed for 9 mL of substrate (one microtiter plate). On the day of the assay, the substrate vial is removed from the freezer and combined with 9 mL of pre-warmed (37° C.) substrate buffer (the final concentration is 0.227 mg/mL). Place the buffer in a 37° C. water bath. Sonicate for 5 minutes or vortex until solution is clear before use.
The enzyme is stored at −80° C. in 100 or 50 μL portions. A 0.406 mg/mL recombinant hepatic lipase stock requires a 50-fold dilution. Therefore, to a 50 μL or 100 μL enzyme aliquot, 2450 μL or 4900 μL, respectively, of substrate Buffer A (protein buffer) should be added. The enzyme should then be stored on ice until ready to use. The protein concentration of enzyme is about 0.406 mg/mL.
To make a 20 mg/mL stock solution, 2-3 mg of DTNB is weighed and then mixed with an appropriate amount of 100% DMSO (dimethyl sulfoxide) to make the desired concentration. This mixture is sonicated for five minutes.
The above solution should be diluted 10 fold with substrate Buffer B (concentration now 2 mg/mL). Then to the thioPEG substrate solution, add 60 μl of dilute DTNB per mL of thioPEG substrate solution. Thus for 9 mL of substrate, 540 microliters of dilute DTNB (final concentration in substrate solution=0.11 mg/mL).
The test compound is dissolved in pure DMSO at […]. As shown below in Table 2, assay concentrations are 10, 1, 0.1, 0.33, 0.011, 0.0037, 0.0012 and 0.00041 μM.
Using a spectrometer, DTNB is used as a thiol coloring reagent with an incubator temperature of 37° C. Substrate Buffer B is placed in a 37° C. water bath to pre-warm. […]

Row | Compound | IC50 [nM]
19 | CCCCNC(=O)n1c(=O)c2ccccc2n1C | 19 ± 0.4
20 | CCCCNC(=O)n1[nH]c2ccccc2c1=O | 368 ± 15
21 | CCCCCNC(=O)n1c(=O)c2ccccc2n1CCc1ccccc1 | 97.1 ± 1
22 | CCCCCNC(=O)n1c(=O)c2ccccc2n1CCC | 59.2 ± 1.1
23 | CCCCCNC(=O)n1[nH]c2ccccc2c1=O [drawing 15] | 67.2 ± 3.2
